In patent publication US20260315434A1, “USE OF GUAIACOL SESQUITERPENE LACTONE DERIVATIVES” (NANJING UNIVERSITY OF CHINESE MEDICINE, priority 2023, published 2026):

How the values were obtained:
[1] = system: inflammatory factors (TNF, IL-6, IL-1) in liver tissue; experiment: LPS-induced sepsis, hepatic inflammatory factor mRNA (Q-PCR); settings: for Tnf mRNA expression, liver: LPS 8.92; for Il6 mRNA expression, liver: LPS 11.34; for Il1 mRNA expression, liver: LPS 11.52
Excerpt: They were acclimated for 7 days before experimentation.
The normal and model groups received equal volumes of solvent (0.5% CMC-Na) via oral gavage.
Specimen Collection: One hour after the final drug administration, mice were euthanized by cervical dislocation. The abdominal cavity was opened, and the lungs, liver, and kidneys were removed. These organs were rinsed twice with pre-chilled PBS. Tissue samples were excised from the mouse lungs, left hepatic lobe, and kidneys. […] Remaining tissues were stored at −70° C. for future use.
Accurately weigh 20 mg of kidney, lung, and liver tissue. Rinse with pre-chilled PBS solution, cut into small pieces using ophthalmic scissors, and place into a glass homogenizer. Add 1 mL of Trizol reagent and grind to prepare tissue homogenate. Transfer the homogenate to a RNAse-free 1.5 mL EP tube and lyse on ice for 10 min. Add 200 μL chloroform, vortex vigorously, and let stand on ice for 3-5 min. Centrifuge at 12,000 rpm and 4° C. for 15 min. Carefully transfer the supernatant to a new RNAse-free 1.5 mL EP tube. Add an equal volume of pre-chilled isopropanol, incubate on ice for 30 min, then centrifuge at 12,000 rpm and 4° C. for 10 min. Discard the supernatant. […] Subsequently, dissolve the pellet in 10 μL DEPC-treated water. Dilute 1 μL of the total RNA solution 100-fold and measure the OD values at 260 nm and 280 nm using a full-wavelength microplate reader.
Following the method described in the kit manual, subsequent experiments were conducted using a 20 μL reverse transcription reaction system:
Primers were designed based on the nucleotide sequence of the mouse in GenBank and synthesized.
Perform subsequent experiments using a 20 μL reaction system according to the kit instructions:
After adding the above reagents to micro reaction tubes, seal them with the cap and place them in the Q-PCR instrument. Set the parameters according to the following reaction conditions to perform the amplification experiment.
Record the threshold cycle (Ct) values for each group and perform calculation and analysis using the 2^−ΔΔCt method (setting the expression level of the reference gene Gapdh as 1 to correct the expression levels of the target genes).
Data Statistics: All data are presented as Means±S.E.M. Analysis of variance (ANOVA) was performed to assess the significance of differences. Groups showing significant differences in ANOVA were further compared using one-way ANOVA and Dunnett's test. A P-value <0.05 was considered statistically significant.

serum ALT and AST = experiment: CCl4-induced acute liver injury, serum ALT and AST; format: in vivo, C57BL/6 mice
Experimental: They were acclimated for 7 days before use in experiments.
Mice were randomly assigned to groups. One group was arbitrarily designated as the normal group, while the remaining groups served as model group, Compound 1 group, Hydrochloride 20 group, Fumarate 21 group, and Silibinin group, with 6 mice per group. Except for the normal group receiving 10 mL olive oil/kg via injection, all other mice received 0.5 mL CCl4+9.5 mL olive oil/kg body weight via intraperitoneal injection, maintaining a CCl4 to olive oil ratio of 1:19. Starting from day 1 of modeling, Compound 1, Hydrochloride 20, and Fumarate 21 were administered orally for 3 consecutive days.
The blood was allowed to stand at room temperature for 2 hours, then centrifuged at 3000 rpm for 20 minutes. Serum was aspirated, aliquoted, and stored at −70° C. for future use. After blood collection, euthanize mice by cervical dislocation. Perform laparotomy to remove the liver. Rinse twice with pre-chilled PBS. Excise the left hepatic lobe tissue. […] Store remaining tissue at −70° C. for future use.
Serum AST and ALT Assay: Use 10 μL of each sample for testing. Determine mouse serum AST and ALT levels according to the operating manual. Measure absorbance at 510 nm using an enzyme-linked immunosorbent assay (ELISA) reader. Calculate sample concentration (U/L) based on the standard curve.
Data Statistics: All data are expressed as means f standard error of the mean (S.E.M.). Differences were analyzed for significance using analysis of variance (ANOVA). For groups showing significant differences in ANOVA, one-way ANOVA followed by Dunnett's test was performed to compare intergroup differences.

[2] = Safety evaluation, mouse activity status (30 days oral); format: in vivo, C57BL/6 mice; settings: 500, 1000 mg/kg oral
Excerpt: The Normal group received an equal volume of solvent (saline).

[3] = system: inflammatory cytokines (IL-1β, IL-6) in lung tissue; experiment: LPS-induced acute lung injury, inflammatory cytokines by ELISA; format: in vivo, C57BL/6 mice; settings: for IL-1β: LPS 2411.32; for IL-6: LPS 3520.94
Experimental: After a 7-day acclimatization period, mice were used for subsequent experiments.
The abdomen was opened, and the lungs were removed. They were rinsed twice with pre-chilled PBS. […] The remaining tissue was stored at −70° C. for future use.
Data Statistics: All data are expressed as means S.E.M. Statistical differences between groups were analyzed using one-way ANOVA and t-tests in SPSS software. P values less than 0.05 were considered statistically significant.

Hepa1-6 cells = experiment: Antitumor efficacy combined with anti-PD-L1 monoclonal antibody, Hepa1-6 xenograft; format: in vivo, C57BL/6 mice; settings: for combination with anti-PD-L1 monoclonal antibody vs. single agents, Hepa1-6: 1 mg/kg/day i.p., 2 weeks, result in words
Experimental: Hepa1-6 cells were cultured and expanded in vitro. An appropriate number of cells in the logarithmic growth phase was resuspended in a mixture of serum-free DMEM medium and Matrigel (1:1). Under sterile conditions, prepare a cell suspension at 2.5×10^6 cells/100 μL. Using a syringe, inject 100 μL of the cell suspension subcutaneously into the left forelimb axilla of male C57BL/6 mice. […] Compounds 20 and 103 were administered via intraperitoneal injection daily, while anti-PD-L1 monoclonal antibody was administered intraperitoneally every three days for a total of two weeks. During the treatment period, mouse body weight and tumor diameter were measured daily. At the end of the experiment, mice were euthanized by cervical dislocation, and tumors were removed and weighed. Tumor volume (TV) was calculated using the formula: TV=½×a×b^2, where a represents the longest diameter of the tumor and b represents the shortest diameter.

[4] = system: serum creatinine and blood urea nitrogen; experiment: Folic acid-induced acute kidney injury, serum creatinine and urea; format: in vivo, C57BL/6 mice; set-up: unit not given here; settings: folic acid acute model
Experimental: Except for the normal group, all other mice were administered folic acid (250 mg/kg) dissolved in 0.9% NaHCO3 solution via intraperitoneal injection to establish an acute kidney injury model.
The blood was allowed to stand at room temperature for 2 hours, then centrifuged at 3000 rpm for 20 minutes. Serum was aspirated, aliquoted, and stored at −70° C. for future use. Following blood collection, euthanize mice by cervical dislocation. Perform laparotomy to remove kidneys, dissect out perirenal fat and capsules. […] Paraffin-embedded specimens undergo HE staining; remaining tissue is stored at −70° C. for future use.
Serum Creatinine (Scr) and Blood Urea Nitrogen (BUN) Level Assay: 10 μL of serum from each sample was used for creatinine and urea level detection. Samples were added sequentially strictly following the kit instructions. After incubation at 37° C., absorbance values were measured using an enzyme-linked immunosorbent assay (ELISA) reader. The concentration levels of each indicator were calculated based on the standard curve.

serum TC and TG = experiment: HFD-induced atherosclerosis, serum total cholesterol and triglyceride; format: in vivo, APOE−/− mice; set-up: Serum TC / Serum TG: unit not given here; settings: for Serum TC / Serum TG: 8 weeks
Experimental: Experimental animals: C57BL and APOE^−/− mice, male, 8 weeks old, purchased from GemPharmatech LLC. Production license number: SCXK(Su)2023-0009. […] They were acclimated for 7 days before use in experiments.
Normal group (C57BL), model group (HFD/APOE^−/−), positive control drug VTX3232 (10 mg/kg) group, compound 103 (0.3, 1, 3, 10 and 30 mg/kg) group, with 6 mice per group. Oral administration was performed continuously for 8 weeks.
Allow blood to stand at room temperature for 2 hours, then centrifuge at 3000 rpm for 20 minutes. Aspirate the serum, aliquot it, and store at −70° C. for future use. After blood collection, euthanize mice by cervical dislocation. Open the abdominal cavity, remove heart and aorta. […] Store remaining tissues at −80° C. for future use.
Serum Total Cholesterol (TC) and Triglyceride (TG) Assay: For each sample, 10 μL of serum was used for […]. Samples were added sequentially strictly according to the kit instructions, incubated at 37° C., and measured for absorbance values using an enzyme-linked immunosorbent assay (ELISA) reader. The concentration levels of each indicator were calculated based on the standard curve.

[5] = dose 1 (head μmol/kg/day; text 1 mg/kg/day), i.p. daily, two weeks, Hepa1-6

| SMILES | Tnf mRNA expression, liver ([1]; 1 mg/kg oral) | Il6 mRNA expression, liver ([1]; 1 mg/kg oral) | Il1 mRNA expression, liver ([1]; 1 mg/kg oral) | ALT (serum ALT and AST; 1 mg/kg oral) [U/L] | AST (serum ALT and AST; 1 mg/kg oral) [U/L] | IL-1β ([3]; 0.1 mg/kg) [pg/mL] | IL-6 ([3]; 0.1 mg/kg) [pg/mL] | IL-1β ([3]; 1 mg/kg) [pg/mL] | IL-6 ([3]; 1 mg/kg) [pg/mL] | combination with anti-PD-L1 monoclonal antibody vs. single agents, Hepa1-6 (Hepa1-6 cells) | BUN ([4]; 0.1 mg/kg oral) | Scr (serum creatinine) ([4]; 0.1 mg/kg oral) | BUN ([4]; 1 mg/kg oral) | further results |
| --- | --- | --- | --- | --- | --- | --- | --- | --- | --- | --- | --- | --- | --- | --- |
| CN(C)C[C@@H]1C(=O)O[C@H]2[C@H]1CC[C@@]1(C)C[C@]13CC[C@@](C)(O)[C@H]23 [Compound 20] | 5.71 ± 0.61 | 3.93 ± 0.90 | 3.07 ± 0.29 | 85.02 ± 15.84 | 153.34 ± 27.59 | 1570.02 ± 62.95 | 2348.32 ± 202.75 | 708.74 ± 38.40 | 1172.00 ± 240.50 | synergistic effect |  |  |  | activity status after each administration [2]: relatively reduced activity and lethargy; time to recovery to normal activity [2]: 1 to 2 h; coat luster, behavioral activity, or mental state vs. Normal group ([2]; 30 days): no significant differences; tumor inhibition rate, combination (Hepa1-6 cells; 1 mg/kg/d i.p. combined with anti-PD-L1 monoclonal antibody (5 mg/kg/d)): 96.99% |
| CN(C)C[C@@H]1C(=O)O[C@H]2[C@H]1CC[C@@]1(C)C[C@]13CC[C@@](C)(O)[C@H]23 [Compound 21] | 7.12 ± 1.12 | 4.82 ± 0.69 | 4.22 ± 0.90 | 95.82 ± 2.72 | 215.82 ± 63.48 | 1623.55 ± 32.64 | 2585.26 ± 273.50 | 888.28 ± 35.20 | 1288.32 ± 123.80 |  | 30.08 ± 3.03 | 90.69 ± 12.83 | 18.95 ± 2.58 | Tnf mRNA expression, liver ([1]; 0.1 mg/kg oral): 7.78 ± 1.68; Il6 mRNA expression, liver ([1]; 0.1 mg/kg oral): 8.96 ± 0.70; Il1 mRNA expression, liver ([1]; 0.1 mg/kg oral): 10.32 ± 1.45; Scr (serum creatinine) ([4]; 1 mg/kg oral, 1 mg/kg): 50.39 ± 7.65; ALT (serum ALT and AST; 0.1 mg/kg oral): 132.32 ± 31.96 U/L; AST (serum ALT and AST; 0.1 mg/kg oral): 385.64 ± 28.70 U/L |
| CC1=C2CC[C@@](C)(OC(=O)N3CCCC3)[C@@H]2[C@H]2OC(=O)[C@@H](CN3CCCC3)[C@@H]2CC1 [Compound 103] |  |  |  |  |  |  |  |  |  | synergistic effect | 23.42 ± 13.11 | 74.95 ± 21.37 | 20.38 ± 10.82 | Serum TC (serum TC and TG; 0.3 mg/kg, oral): 18.86 ± 1.44; Serum TG (serum TC and TG; 0.3 mg/kg, oral): 2.69 ± 0.86; Serum TC (serum TC and TG; 1 mg/kg, oral): 18.71 ± 1.45; Serum TG (serum TC and TG; 1 mg/kg, oral): 2.87 ± 0.42; Serum TC (serum TC and TG; 3 mg/kg, oral): 17.44 ± 1.83; Serum TG (serum TC and TG; 3 mg/kg, oral): 2.56 ± 0.93; Serum TC (serum TC and TG; 10 mg/kg, oral): 17.75 ± 1.62; Serum TG (serum TC and TG; 10 mg/kg, oral): 3.01 ± 0.89; Serum TC (serum TC and TG; 30 mg/kg oral): 17.65 ± 1.35; Serum TG (serum TC and TG; 30 mg/kg oral): 2.91 ± 0.59; serum TC and TG levels compared with the model group (serum TC and TG; 0.3, 1, 3, 10, 30 mg/kg oral): no significant changes; Scr (serum creatinine) ([4]; 1 mg/kg oral): 73.88 ± 14.26; BUN ([4]; 10 mg/kg oral): 17.72 ± 7.78; Scr (serum creatinine) ([4]; 10 mg/kg oral): 45.19 ± 7.41; Tumor inhibition rate (%) (Hepa1-6 cells; [5]): 62.26%; Tumor weight (Hepa1-6 cells; [5]): 0.16 ± 0.05 g |
